Reference: patent US20120171166A1, “SYNBIOTIC COMBINATION OF PROBIOTIC AND HUMAN MILK OLIGOSACCHARIDES TO PROMOTE GROWTH OF BENEFICIAL MICROBIOTA” (ABBOTT LABORATORIES, priority 2010, published 2012)
“Also recorded” adds a separate entry of the source.

Experiments:
[1] = test system: Bifidobacterium spp. (12 bifidobacteria strains); assay: Bacterial growth assay (OD600), all bifidobacteria strains tested (Example 37); type: cell-based; conditions: for growth / ability to ferment the carbohydrate (OD600): carbohydrate at 1% final concentration in sMRS+cysteine, all bifidobacteria tested
Description: (§1) All bifidobacteria strains are initially inoculated from frozen stocks, grown in deMan Rogosa Sharpe (MRS) broth (Difco, Detroit, Mich.) supplemented with 0.5 g/L L-cysteine and incubated at 37° C. for 24 h in an anaerobic chamber (90% N2, 5% CO2 and 5% H2). Subsequently, the cultures are passed twice on a semi-synthetic MRS medium (sMRS)+0.5 g/L L-cysteine which is supplemented with 1% (w/v) filter-sterilized glucose as the sole carbohydrate source. After the 2nd pass, cultures are prepared to use as inoculums for growth assays described below. For bifidobacteria strains, the same procedure is followed except all media are supplemented with 0.5 g/l L-cysteine/HCl.
(§2) After the 2nd pass in sMRS+glucose+cysteine, the cultures are washed once with 10 mL of sterile sMRS+cysteine (no carbohydrate), resuspended in 10 ml of sterile sMRS+cysteine (no carbohydrate) and then used as a 1% inoculum. The carbohydrates are sterilized with a 0.22 micron filter and used at a 1% final concentration. Cell growth is performed in 250 μL of sMRS+cysteine covered with 50 μL of mineral oil in a Bioscreen 100-well Honeycomb plate. Cell growth is monitored by measuring optical density at 600 nm (OD600) using a Bioscreen C Automated Microbiology Growth Curve Analysis System. The plate reader is operated in discontinuous mode, with absorbance readings performed in 30-minute intervals, and preceded by 30-second shaking intervals at maximum speed. Controls consist of inoculated medium lacking carbohydrate. Due to space limitations on the microtitre plate, the carbohydrates are divided into three separate groups: plate A (HMO precursors: glucose, galactose, lactose, NAG, fucose, fructose and sialic acid), plate B (Prebiotics: glucose, Purimune™ GOS, purified Purimune™ GOS, Vivinal® GOS, purified Vivinal® GOS, scFOS and PDX), and plate C (HMOs: glucose, 6′-SL, 3′-SL, 2′-FL, 3′-FL and LNnT). All three plates include a positive control (glucose) and negative control (no carbohydrate).
(§3) The OD600 data for each carbohydrate is corrected by subtracting the OD600 of the basal media (sMRS) from the sample plate for each probiotic. Maximum OD is determined by inspection of the corrected growth data. OD is determined by subtracting the initial corrected OD (time point 0) from the maximum corrected OD. Samples are grown in biologically independent triplicates and the resulting growth kinetic data are expressed as the mean of these replicates.
(§4) For the growth curve plots, OD600 vs. time is first plotted for the bacteria grown on medium lacking carbohydrate (sMRS). For all other carbohydrates, the OD600 data is corrected by subtracting the OD600 of sMRS.

[2] = test system: enteric nerve cells; assay: Peristalsis model using luminally perfused mouse colon (Example 35); conditions: colon muscle perfused at 1, 0.5 and 0.1 mg/mL for 15 minutes; for stimulation of enteric nerve cells: without involving gut microbiota and/or their metabolites
Description: In this Example, the effect of 2′-fucosyllactose (2′FL) or 3′ fucosyllactose (3′FL) on stimulating enteric nerve cells in the gastrointestinal tract of rodents is analyzed.
Specifically, a peristalsis model using luminally perfused mouse colon is used to test the stimulation effect of 2′FL or 3′FL on enteric nerve cells. Colon muscle is perfused with 2′FL or 3′FL, at concentrations of 1 mg/mL, 0.5 mg/mL, and 0.1 mg/mL, for 15 minutes. The frequency and amplitude of contractions of the muscle is analyzed.

[3] = test system: B. infantis ATCC 15697; assay: Bacterial growth assay (OD600), B. infantis ATCC 15697; type: cell-based, Bifidobacterium infantis; conditions: 1% carbohydrate in sMRS+cysteine
Description: as §1, §2, §3, §4

[4] = test system: infant fecal inoculum (diluted feces); assay: In vitro fermentation model simulating large bowel fermentation with infant fecal inoculum (Example 36); type: cell-based, human infant; conditions: for pH change from baseline: at 3, 6, and 12 h after inoculation, comparison among substrates (P<0.0001)
[5] = test system: B. infantis M-63; assay: Bacterial growth assay (OD600), B. infantis M-63; type: cell-based, Bifidobacterium infantis; conditions: 1% carbohydrate in sMRS+cysteine
Description: as §1, §2, §3, §4

[6] = test system: B. breve ATCC 15700; assay: Bacterial growth assay (OD600), B. breve ATCC 15700; type: cell-based, Bifidobacterium breve; conditions: 1% carbohydrate in sMRS+cysteine
Description: as §1
After the 2nd pass in sMRS+glucose+cysteine, the cultures are washed once with 10 mL of sterile sMRS+cysteine (no carbohydrate), resuspended in 10 ml of sterile sMRS+cysteine (no carbohydrate) and then used as a 1% inoculum. The carbohydrates are sterilized with a 0.22 micron filter and used at a 1% final concentration. […] Cell growth is monitored by measuring optical density at 600 nm (OD600) using a Bioscreen C Automated Microbiology Growth Curve Analysis System. The plate reader is operated in discontinuous mode, with absorbance readings performed in 30-minute intervals, and preceded by 30-second shaking intervals at maximum speed. […]

Molecule | growth / ability to ferment the carbohydrate (OD600) [1] | growth / ability to ferment the carbohydrate (OD600) [3] | fermentation rate [4] | growth / ability to ferment the carbohydrate (OD600) [5] | fermentation rate class (rapidly-, medium-, slowly-fermented oligosaccharide) [4] | other results
2′-fucosyllactose [2′FL] | only B. infantis ATCC 15697 and B. infantis M-63 are able to ferment | able to ferment | about 4,872 μg/g of dry matter/hour | able to ferment |  | amplitude of contraction [2]: reduced consistently and in a dose response fashion; frequency of contraction [2]: reduced consistently and in a dose response fashion; stimulation of enteric nerve cells [2]: direct stimulation of nerve cells; stimulation of enteric nerve cells ([2]; listed as 2′-fucosyllactose): stimulates enteric nerve cells; pH change from baseline [4]: greatest
3′-fucosyllactose [3′FL] | only B. infantis ATCC 15697 and B. infantis M-63 are able to ferment | able to ferment |  | able to ferment | Medium-fermented | amplitude of contraction [2]: reduced consistently and in a dose response fashion; effectiveness on gut motility, 3′FL compared with 2′FL [2]: more effective than 2′FL; frequency of contraction [2]: reduced consistently and in a dose response fashion; stimulation of enteric nerve cells [2]: direct stimulation of nerve cells
CC(=O)N[C@H]1[C@H](O[C@H]2[C@@H](O)[C@@H](CO)O[C@@H](O[C@H]3[C@H](O)[C@@H](O)C(O)O[C@@H]3CO)[C@@H]2O)O[C@H](CO)[C@@H](O[C@@H]2O[C@H](CO)[C@H](O)[C@H](O)[C@H]2O)[C@@H]1O (mixture of isomers) [LNnT, Lacto-N-Neotetraose] |  | grow well; also recorded: able to ferment | about 4,488 μg/g of dry matter/hour | grow well; also recorded: able to ferment |  | growth / ability to ferment the carbohydrate (OD600) [6]: grow well; also recorded: able to ferment; pH change from baseline [4]: greatest
CC(=O)N[C@H]1[C@H]([C@H](O)[C@H](O)CO)O[C@@](O[C@H]2[C@@H](O)[C@@H](CO)O[C@@H](O[C@H]3[C@H](O)[C@@H](O)C(O)O[C@@H]3CO)[C@@H]2O)(C(=O)O)C[C@@H]1O (stereo partly shown) [3′SL, 3′-sialyllactose] | only B. infantis ATCC 15697 and B. infantis M-63 are able to ferment | able to ferment |  | able to ferment | Medium-fermented | 
CC(=O)N[C@H]1[C@H]([C@H](O)[C@H](O)CO)O[C@@](OC[C@H]2O[C@@H](O[C@H]3[C@H](O)[C@@H](O)[C@H](O)O[C@@H]3CO)[C@H](O)[C@@H](O)[C@H]2O)(C(=O)O)C[C@@H]1O [6′SL, 6′-sialyllactose] | only B. infantis ATCC 15697 and B. infantis M-63 are able to ferment | able to ferment | about 1,809 μg/g of dry matter/hour | able to ferment | Medium-fermented | total SCFA production ([4]; 12 h of fermentation): greater (P<0.05) for the 6′SL and GOS substrates compared to 2′FL; total SCFA production ([4]; after 3 and 6 h of fermentation): lower (P<0.05) with 6′SL compared to GOS
C[C@H](O)[C@@H](O)[C@@H](O)[C@H](O)C=O [L-fucose, L-(−) Fucose] | None of the bifidobacteria are able to ferment | not able to ferment |  | not able to ferment |  | 
CC(=O)N[C@H]1C(O)O[C@H](CO)[C@@H](O)[C@@H]1O (stereo partly drawn) [NAG, N-acetyl-D-glucosamine] | Only B. breve ATCC 15700 is able to ferment |  |  |  |  | growth / ability to ferment the carbohydrate (OD600) [6]: able to ferment
O=C(CO)[C@@H](O)[C@H](O)[C@H](O)CO [fructose, D-Fructose] | majority of bifidobacteria is able to ferment |  |  |  |  | 
OC[C@H]1O[C@@H](O[C@H]2[C@H](O)[C@@H](O)[C@@H](O)O[C@@H]2CO)[C@H](O)[C@@H](O)[C@H]1O [lactose, α-Lactose] |  |  |  |  |  | growth on the carbohydrate (OD600) ([1]; 1% carbohydrate, bifidobacteria which are not able to ferment galactose): reduced growth
CC(=O)N[C@H]1[C@H]([C@H](O)[C@H](O)CO)OC(O)(C(=O)O)C[C@@H]1O (stereo partly shown) [sialic acid, N-acetylneuraminic acid] | None of the bifidobacteria are able to ferment | not able to ferment |  | not able to ferment |  | 
